Experimental data published in patent US20100105688A1, “PHARMACEUTICAL COMPOSITIONS COMPRISING 3,5-DIAMINO-6-(2,3-DICHLOPHENYL)-1,2,4-TRIAZINE OR R(-)-2,4-DIAMINO-5-(2,3-DICHLOROPHENYL)-6-FLUOROMETHYL PYRIMIDINE AND AN NK1” (GLAXO GROUP LIMITED, priority 2007, published 2010).
Where two headings read alike, the source gives them in different places.

Experiment: Blood and brain concentrations in satellite animals of the MEST study
Assay type: in vivo, rat
Details: satellite rats; for concentration at 60 min: rat, po, n = 1
Protocol: Satellite animals (n=3/group) received the same drugs or combinations of drugs as the test groups, and were culled at the appropriate time after dosing. Blood and brain samples were taken for analysis of the drug concentrations in these compartments.
All doses were calculated as base. ENa9 and ENa13 were dosed via the subcutaneous (s.c.) route at 1 ml/kg in a 2% v/v DMSO/saline vehicle 30 minutes prior to test. ENa7 and ENa14 were dosed orally (p.o.) in a 1% w/v methylcellulose/water vehicle at 2 ml/kg, 60 minutes before test. Compound ENK6 was dosed with via the intraperitoneal (i.p.) route 60 minutes before the test or via the s.c. route 15 minutes before test. In both cases ENK6 was dissolved in saline.

[1] = ENK6 10 mg/kg s.c. + ENa7 1 mg/kg p.o., n = 2-3
[2] = ENK6 10 mg/kg s.c. + ENa7 3 mg/kg p.o., n = 2-3
[3] = ENK6 30 mg/kg s.c. + ENa7 1 mg/kg p.o., n = 2
[4] = ENK6 30 mg/kg s.c. + ENa7 3 mg/kg p.o., n = 2

- concentration at 60 min (blood, 1 mg/kg, ENK6 veh + ENa7 1 mg/kg p.o. (Table 3), read-out: Blood concentration): 311 ng/mL
- concentration at 60 min (blood, 1 mg/kg, ENK6 veh + ENa7 1 mg/kg p.o. (Table 4), read-out: Blood concentration): 352 ng/mL
- concentration at 60 min (blood, 3 mg/kg, ENK6 veh + ENa7 3 mg/kg p.o. (Table 3), read-out: Blood concentration): 1180 ng/mL
- concentration at 60 min (blood, 3 mg/kg, ENK6 veh + ENa7 3 mg/kg p.o. (Table 4), read-out: Blood concentration): 1350 ng/mL
- concentration at 60 min (brain, 1 mg/kg, ENK6 veh + ENa7 1 mg/kg p.o. (Table 3), read-out: Brain concentration): 517 ng/g
- concentration at 60 min (brain, 1 mg/kg, ENK6 veh + ENa7 1 mg/kg p.o. (Table 4), read-out: Brain concentration): 588 ng/g
- concentration at 60 min (brain, 3 mg/kg, ENK6 veh + ENa7 3 mg/kg p.o. (Table 3), read-out: Brain concentration): 2830 ng/g
- concentration at 60 min (brain, 3 mg/kg, ENK6 veh + ENa7 3 mg/kg p.o. (Table 4), read-out: Brain concentration): 2190 ng/g
- Blood concentration [1]: 581 ng/mL
- Brain concentration [1]: 1125 ng/g
- Blood concentration [2]: 1603 ng/mL
- Brain concentration [2]: 2855 ng/g
- Blood concentration [3]: 461 ng/mL
- Brain concentration [3]: 752 ng/g
- Blood concentration [4]: 1404 ng/mL
- Brain concentration [4]: 2096 ng/g
Structure (SMILES): Nc1nnc(-c2cccc(Cl)c2Cl)c(N)n1 [ENa7, 3,5-diamino-6-(2,3-dichlorophenyl)-1,2,4-triazine, reference compound]
